Reference: patent US20260308145A1, “CDK2 INHIBITORS AND METHODS OF USING SAME” (Shenzhen lonova Life Science Co., Ltd., priority 2023, published 2026)

Assays:
Assay type in all cases: biochemical
CDK6/cyclinD3 = target: T1, CDK6/cyclinD3 (Homo sapiens, UniProt Q00534); test: Cyclin-dependent kinase activity assay (continuous ATP coupling assay), CDK6/cyclinD3; settings: CDK6/cyclinD3 25 nM, ATP 500 μM, Rb copeptide 500 μM, 15 min preincubation, pH 7.5, 1% DMSO
T1 construct: purchased Carna Biosciences 04-107
T1 sequence (Q00534 whole entry): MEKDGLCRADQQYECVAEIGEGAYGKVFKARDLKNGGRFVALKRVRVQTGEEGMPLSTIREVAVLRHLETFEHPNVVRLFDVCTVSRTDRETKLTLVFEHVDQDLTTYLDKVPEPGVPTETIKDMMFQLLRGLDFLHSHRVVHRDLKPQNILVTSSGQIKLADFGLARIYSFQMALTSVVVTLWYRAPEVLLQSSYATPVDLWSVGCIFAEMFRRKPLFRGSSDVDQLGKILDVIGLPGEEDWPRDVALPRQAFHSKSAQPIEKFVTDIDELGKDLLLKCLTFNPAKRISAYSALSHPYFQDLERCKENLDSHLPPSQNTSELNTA
T1 sequence (P30281 whole entry partner): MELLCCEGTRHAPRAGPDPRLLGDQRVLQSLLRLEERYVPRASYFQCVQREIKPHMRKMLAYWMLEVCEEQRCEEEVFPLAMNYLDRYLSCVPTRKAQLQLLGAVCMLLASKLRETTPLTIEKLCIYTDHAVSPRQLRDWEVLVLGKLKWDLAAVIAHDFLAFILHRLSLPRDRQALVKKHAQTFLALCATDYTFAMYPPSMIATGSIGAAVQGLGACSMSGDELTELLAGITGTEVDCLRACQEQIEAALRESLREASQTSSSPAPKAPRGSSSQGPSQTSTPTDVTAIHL
Summary of the method: (§1)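 PK/LDH-coupled continuous assay, ATP at each kinase's Km, Tris pH 7.5 with 1% DMSO final; enzyme preincubated 15 min with compound (10 μM to 0.05 nM, 1:3), NADH fluorescence decrease (ex 340/em 460) gave velocities. IC50 by 4-variable fit; Ki by quadratic/Morrison fit.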

CDK4/cyclinD3 = target: T2, CDK4/cyclinD3 (Homo sapiens, UniProt P11802); test: Cyclin-dependent kinase activity assay (continuous ATP coupling assay), CDK4/cyclinD3; settings: CDK4/cyclinD3 60 nM, ATP 500 μM, Rb copeptide 500 μM, 15 min preincubation, pH 7.5, 1% DMSO
T2 construct: purchased Carna Biosciences 04-105
T2 sequence (P11802 whole entry): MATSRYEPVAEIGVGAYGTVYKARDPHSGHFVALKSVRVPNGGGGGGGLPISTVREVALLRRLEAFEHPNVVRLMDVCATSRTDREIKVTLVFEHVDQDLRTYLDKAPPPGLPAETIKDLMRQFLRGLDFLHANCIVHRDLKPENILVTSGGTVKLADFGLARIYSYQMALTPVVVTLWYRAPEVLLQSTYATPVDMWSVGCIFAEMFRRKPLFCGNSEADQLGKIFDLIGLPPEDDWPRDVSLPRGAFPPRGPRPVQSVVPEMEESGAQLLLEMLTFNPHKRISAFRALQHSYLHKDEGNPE
T2 sequence (P30281 whole entry partner): as the sequence (P30281 whole entry partner) above
Summary of the method: as §1

CDK2/cyclinE1 = target: T3, CDK2/cyclinE1 (Homo sapiens, UniProt P24941); test: Cyclin-dependent kinase activity assay (continuous ATP coupling assay), CDK2/cyclinE1; settings: CDK2/cyclinE1 5 nM, ATP 300 μM, Rb copeptide 100 μM, 15 min preincubation, pH 7.5, 1% DMSO
T3 construct: purchased Carna Biosciences 04-165
Summary of the method: as §1

CDK1/cyclinB1 = target: T4, CDK1/cyclinB1 (Homo sapiens, UniProt P06493); test: Cyclin-dependent kinase activity assay (continuous ATP coupling assay), CDK1/cyclinB1; settings: CDK1/cyclinB1 10 nM, ATP 200 μM, Histone1 copeptide 100 μM, 15 min preincubation, pH 7.5, 1% DMSO
T4 construct: purchased Carna Biosciences 04-102
T4 sequence (P06493 whole entry): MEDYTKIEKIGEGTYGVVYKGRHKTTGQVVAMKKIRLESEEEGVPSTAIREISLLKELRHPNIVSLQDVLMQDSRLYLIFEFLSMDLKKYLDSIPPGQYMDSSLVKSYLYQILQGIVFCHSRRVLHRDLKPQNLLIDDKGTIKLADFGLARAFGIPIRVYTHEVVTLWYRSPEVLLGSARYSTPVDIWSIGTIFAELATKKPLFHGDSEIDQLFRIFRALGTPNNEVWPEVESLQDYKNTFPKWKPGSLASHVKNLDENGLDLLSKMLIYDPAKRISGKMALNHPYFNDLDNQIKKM
T4 sequence (P14635 whole entry partner): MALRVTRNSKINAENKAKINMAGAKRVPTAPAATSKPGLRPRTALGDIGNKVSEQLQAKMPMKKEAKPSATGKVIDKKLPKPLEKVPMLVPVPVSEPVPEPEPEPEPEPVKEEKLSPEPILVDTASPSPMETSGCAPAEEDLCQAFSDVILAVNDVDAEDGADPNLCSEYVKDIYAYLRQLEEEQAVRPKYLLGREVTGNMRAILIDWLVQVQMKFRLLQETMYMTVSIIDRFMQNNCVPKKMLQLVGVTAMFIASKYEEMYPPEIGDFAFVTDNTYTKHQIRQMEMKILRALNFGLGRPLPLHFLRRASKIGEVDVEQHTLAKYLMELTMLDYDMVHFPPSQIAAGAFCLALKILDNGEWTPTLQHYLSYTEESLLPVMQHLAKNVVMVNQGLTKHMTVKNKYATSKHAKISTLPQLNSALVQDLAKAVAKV
Summary of the method: as §1

IC50 (CDK6/cyclinD3) [nM]	IC50 (CDK4/cyclinD3) [nM]	IC50 (CDK2/cyclinE1) [nM]	IC50 (CDK1/cyclinB1) [nM]	Compound
≥ 100	10 to 100	≤ 10	10 to 100	CNS(=O)(=O)c1ccc(Nc2ncc(C(F)(F)F)c(-n3cc(C4CN(C)C4)cn3)n2)cc1 [Example 97]
≥ 100	≥ 100	10 to 100	≥ 100	CNS(=O)(=O)c1ccc(Nc2ncc(C(F)(F)F)c(-n3cc(C4CN(S(C)(=O)=O)C4)cn3)n2)cc1 [Example 98]
≥ 100	≥ 100	10 to 100	≥ 100	CNS(=O)(=O)c1ccc(Nc2ncc(C(F)(F)F)c(-n3cc(C4CN(C(C)=O)C4)cn3)n2)cc1 [Example 99]
≥ 100	≥ 100	≤ 10	10 to 100	CNS(=O)(=O)c1ccc(Nc2ncc(C(F)(F)F)c(-n3cc(N4CC(O)C4)cn3)n2)cc1 [Example 100]
≥ 100	≥ 100	10 to 100	≥ 100	CNS(=O)(=O)c1ccc(Nc2ncc(C(F)(F)F)c(-n3cc(C4CCC4)cn3)n2)cc1 [Example 101]
10 to 100	10 to 100	≤ 10	≥ 100	CNS(=O)(=O)c1ccc(Nc2ncc(C(F)(F)F)c(-n3cc(C4COC4)cn3)n2)cc1 [Example 102]
10 to 100	10 to 100	≤ 10	10 to 100	CNS(=O)(=O)c1ccc(Nc2ncc(C(F)(F)F)c(-n3cc([C@H]4C[C@@H](O)C4)cn3)n2)cc1 [Example 103, 4-[[4-[4-(3-hydroxycyclobutyl)pyrazol-1-yl]-5-(trifluoromethyl)pyrimidin-2-yl]amino]-N-methyl-benzene sulfonamide]
≥ 100	≥ 100	10 to 100	≥ 100	CNS(=O)(=O)c1ccc(Nc2ncc(C(F)(F)F)c(-n3cc([C@H]4C[C@H](O)C4)cn3)n2)cc1 [Example 106, 4-((4-(4-((1r,3r)-3-hydroxycyclobutyl)-1H-pyrazol-1-yl)-5-(trifluoromethyl)pyrimidin-2-yl)amino)-N-methylbenzenesulfonamide]
10 to 100	10 to 100	10 to 100	≥ 100	CC(C)(O)CCc1cnn(-c2nc(NC3CCN(S(C)(=O)=O)CC3)ncc2C(F)(F)F)c1 [Example 109]
≥ 100	≥ 100	≤ 10	≥ 100	CC(O)CNS(=O)(=O)c1ccc(Nc2ncc(C(F)(F)F)c(-n3cccn3)n2)cc1 (stereo not drawn) [Example 110]
≥ 100	≥ 100	≤ 10	≥ 100	CC(C)(O)CNS(=O)(=O)c1ccc(Nc2ncc(C(F)(F)F)c(-n3cccn3)n2)cc1 [Example 111]
≥ 100	≥ 100	≤ 10	≥ 100	O=S(=O)(NCCCO)c1ccc(Nc2ncc(C(F)(F)F)c(-n3cccn3)n2)cc1 [Example 112]
≥ 100	≥ 100	≤ 10	≥ 100	O=S(=O)(NCCCCO)c1ccc(Nc2ncc(C(F)(F)F)c(-n3cccn3)n2)cc1 [Example 113]
≥ 100	≥ 100	10 to 100	≥ 100	Cc1cnc(Nc2ccc(S(=O)(=O)NCCO)cc2)nc1-n1cccn1 [Example 114]
≥ 100	≥ 100	10 to 100	≥ 100	O=S(=O)(NCCO)c1ccc(Nc2ncc(F)c(-n3cccn3)n2)cc1 [Example 115]
≥ 100	≥ 100	10 to 100	≥ 100	O=S(=O)(NCCO)c1ccc(Nc2ncc(C(F)F)c(-n3cccn3)n2)cc1 [Example 116, 4-((5-(difluoromethyl)-4-(1H-pyrazol-1-yl)pyrimidin-2-yl)amino)-N-(2-hydroxyethyl)benzenesulfonamide]
≥ 100	≥ 100	≤ 10	10 to 100	O=S(=O)(NCCO)c1ccc(Nc2ncc(Cl)c(-n3cccn3)n2)cc1 [Example 117]

IC50 (CDK6/cyclinD3) [nM]	IC50 (CDK4/cyclinD3) [nM]	IC50 (CDK2/cyclinE1) [nM]	IC50 (CDK1/cyclinB1) [nM]	Compound
≥ 100	≥ 100	≥ 100	≥ 100	O=S(=O)(NCCO)c1ccc(Nc2nccc(-n3cccn3)n2)cc1 [Example 118]
10 to 100	≥ 100	10 to 100	≥ 100	N#Cc1cnc(Nc2ccc(S(=O)(=O)NCCO)cc2)nc1-n1cccn1 [Example 119]
≥ 100	≥ 100	10 to 100	≥ 100	CS(=O)(=O)Nc1ccc(Nc2ncc(C(F)(F)F)c(-n3cccn3)n2)cc1 [Example 120]
≥ 100	≥ 100	10 to 100	≥ 100	CS(=O)(=O)Nc1cccc(Nc2ncc(C(F)(F)F)c(-n3cccn3)n2)c1 [Example 121]
≥ 100	≥ 100	≥ 100	≥ 100	CNS(=O)(=O)c1cccc(Nc2ncc(C(F)(F)F)c(-n3cccn3)n2)c1 [Example 122]
≥ 100	≥ 100	10 to 100	≥ 100	O=S(=O)(NCCO)c1ccc(Nc2ncc(C(F)(F)F)c(-n3cccn3)n2)cc1F [Example 123]
≥ 100	≥ 100	≤ 10	≥ 100	O=S(=O)(NCCO)c1ccc(Nc2ncc(C(F)(F)F)c(-n3cccn3)n2)c(F)c1 [Example 124]
≥ 100	≥ 100	10 to 100	≥ 100	Cc1cc(Nc2ncc(C(F)(F)F)c(-n3cccn3)n2)ccc1S(=O)(=O)NCCO [Example 125]
≥ 100	≥ 100	≤ 10	≥ 100	Cc1cc(S(=O)(=O)NCCO)ccc1Nc1ncc(C(F)(F)F)c(-n2cccn2)n1 [Example 126]
≥ 100	≥ 100	10 to 100	≥ 100	COCCNS(=O)(=O)c1ccc(Nc2ncc(C(F)(F)F)c(-n3cccn3)n2)cc1 [Example 127]
≥ 100	≥ 100	≥ 100	≥ 100	O=S(=O)(NCCOC(F)(F)F)c1ccc(Nc2ncc(C(F)(F)F)c(-n3cccn3)n2)cc1 [Example 128]
≥ 100	≥ 100	≥ 100	≥ 100	O=S(=O)(NCCOC1CC1)c1ccc(Nc2ncc(C(F)(F)F)c(-n3cccn3)n2)cc1 [Example 129]
≥ 100	≥ 100	10 to 100	≥ 100	O=S(=O)(CCCO)c1ccc(Nc2ncc(C(F)(F)F)c(-n3cccn3)n2)cc1 [Example 130, 3-[4-[[4-pyrazol-1-yl-5-(trifluoromethyl)pyrimidin-2-yl]amino]phenyl]sulfonylpropan-1-ol]
≥ 100	≥ 100	≤ 10	≥ 100	O=S(=O)(NCC1(O)CC1)c1ccc(Nc2ncc(C(F)(F)F)c(-n3cccn3)n2)cc1 [Example 131]
≥ 100	≥ 100	10 to 100	≥ 100	O=S(=O)(NCC1(CO)CC1)c1ccc(Nc2ncc(C(F)(F)F)c(-n3cccn3)n2)cc1 [Example 132]
≥ 100	≥ 100	≤ 10	10 to 100	CC(CO)NS(=O)(=O)c1ccc(Nc2ncc(C(F)(F)F)c(-n3cccn3)n2)cc1 (stereo not drawn) [Example 133]
